Assay results reported in paper PMC6199744, “Development of Chemical Proteomics for the Folateome and Analysis of the Kinetoplastid Folateome” (ACS Infectious Diseases, 2018).
Where two headings read alike, the source gives them in different places.

Key:
[1] = molecular target: T1, HeLa cell extract proteins (Homo sapiens, UniProt P62081); format: binding
T1 construct: endogenous in cells; host or cells: HeLa cell extract

[2] = molecular target: T2, HeLa cell extract proteins (Homo sapiens, UniProt Q10570); format: binding
T2 construct: endogenous in cells; host or cells: HeLa cell extract
T2 sequence (Q10570 1-1443): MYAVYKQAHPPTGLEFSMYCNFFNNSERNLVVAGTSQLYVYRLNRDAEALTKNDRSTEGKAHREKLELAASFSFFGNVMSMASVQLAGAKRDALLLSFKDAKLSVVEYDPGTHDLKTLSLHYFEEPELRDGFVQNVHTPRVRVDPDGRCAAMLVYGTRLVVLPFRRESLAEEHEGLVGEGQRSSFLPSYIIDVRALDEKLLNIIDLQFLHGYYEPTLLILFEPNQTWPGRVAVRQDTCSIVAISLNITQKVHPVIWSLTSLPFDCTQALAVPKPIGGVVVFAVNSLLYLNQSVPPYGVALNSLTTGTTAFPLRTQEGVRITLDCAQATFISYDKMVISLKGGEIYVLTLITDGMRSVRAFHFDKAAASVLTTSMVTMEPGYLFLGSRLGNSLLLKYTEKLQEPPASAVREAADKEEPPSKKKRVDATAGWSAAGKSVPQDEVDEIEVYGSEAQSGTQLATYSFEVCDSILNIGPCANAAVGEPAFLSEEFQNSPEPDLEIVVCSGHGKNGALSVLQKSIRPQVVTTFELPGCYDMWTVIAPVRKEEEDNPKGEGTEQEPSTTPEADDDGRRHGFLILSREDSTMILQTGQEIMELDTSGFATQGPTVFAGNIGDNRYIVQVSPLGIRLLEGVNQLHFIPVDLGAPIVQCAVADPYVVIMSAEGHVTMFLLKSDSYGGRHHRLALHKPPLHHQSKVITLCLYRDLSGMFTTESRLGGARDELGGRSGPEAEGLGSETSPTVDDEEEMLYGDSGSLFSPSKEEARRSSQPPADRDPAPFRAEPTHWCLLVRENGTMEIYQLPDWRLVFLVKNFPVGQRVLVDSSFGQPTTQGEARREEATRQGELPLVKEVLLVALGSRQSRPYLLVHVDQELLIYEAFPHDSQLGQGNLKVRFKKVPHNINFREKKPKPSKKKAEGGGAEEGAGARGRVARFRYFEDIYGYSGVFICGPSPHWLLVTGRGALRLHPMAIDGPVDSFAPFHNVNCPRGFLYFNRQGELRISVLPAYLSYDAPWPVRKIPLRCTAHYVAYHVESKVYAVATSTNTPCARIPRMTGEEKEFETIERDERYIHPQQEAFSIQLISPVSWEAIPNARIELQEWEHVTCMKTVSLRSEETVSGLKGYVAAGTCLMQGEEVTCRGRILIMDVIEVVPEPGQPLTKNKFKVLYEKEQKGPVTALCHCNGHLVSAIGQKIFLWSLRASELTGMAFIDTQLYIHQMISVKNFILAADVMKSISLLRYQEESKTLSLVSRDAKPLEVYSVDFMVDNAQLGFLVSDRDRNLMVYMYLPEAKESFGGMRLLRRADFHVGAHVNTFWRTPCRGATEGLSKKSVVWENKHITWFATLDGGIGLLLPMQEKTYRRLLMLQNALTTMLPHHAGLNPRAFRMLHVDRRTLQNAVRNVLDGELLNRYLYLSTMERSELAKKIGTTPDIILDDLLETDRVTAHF

[3] = molecular target: T. brucei lysate proteins (Trypanosoma brucei brucei, UniProt P12861); format: binding
[4] = molecular target: T. brucei lysate proteins (Trypanosoma brucei brucei, UniProt P07752); format: binding
[5] = molecular target: T. brucei lysate proteins (Trypanosoma brucei brucei, UniProt Q04933); format: binding
[6] = molecular target: T. brucei lysate proteins (Trypanosoma brucei brucei, UniProt P13377); format: binding
[7] = system: TB927.8.6460; assay: Multitargeted bead mixture competition; format: binding, T. brucei; details: for fold change: CONSERVED, vehicle control = 1
[8] = molecular target: T3, DHFR (Homo sapiens, UniProt P00374); assay: Multitargeted bead mixture competition, HeLa cell extract; format: binding
T3 sequence (P00374 1-187): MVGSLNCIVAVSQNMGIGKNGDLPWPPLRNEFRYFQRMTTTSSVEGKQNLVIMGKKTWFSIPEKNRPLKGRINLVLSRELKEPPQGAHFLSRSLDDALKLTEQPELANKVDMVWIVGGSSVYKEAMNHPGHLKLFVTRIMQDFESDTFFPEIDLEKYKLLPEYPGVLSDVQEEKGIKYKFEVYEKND

[9] = system: TB11.03.0290; assay: Multitargeted bead mixture competition; format: binding, T. brucei; details: for fold change - vehicle control: protein TB11.03.0290 PROTEIN KINASE, PUTATIVE
[10] = molecular target: DHFR-TS (Leishmania major, UniProt P07382); assay: biochemical; details: competing free ligand 100 μM; bead = immobilized compound of the row; L. major lysate; read-out: % Inhibition of protein binding to bead, DHFR-TS, L. major
[11] = molecular target: T. brucei lysate proteins (Trypanosoma brucei brucei, UniProt P38973); format: binding; details: protein TB427.10.1070 CELL DIVISION PROTEIN KINASE 2 HOMOLOG 1 (CRK1)
[12] = molecular target: T4, PTR1 (Leishmania major, UniProt Q01782); assay: biochemical; details: competing free ligand 100 μM; bead = immobilized compound of the row; L. major lysate; read-out: % Inhibition of protein binding to bead, PTR-1, L. major
T4 sequence (Q01782 1-288): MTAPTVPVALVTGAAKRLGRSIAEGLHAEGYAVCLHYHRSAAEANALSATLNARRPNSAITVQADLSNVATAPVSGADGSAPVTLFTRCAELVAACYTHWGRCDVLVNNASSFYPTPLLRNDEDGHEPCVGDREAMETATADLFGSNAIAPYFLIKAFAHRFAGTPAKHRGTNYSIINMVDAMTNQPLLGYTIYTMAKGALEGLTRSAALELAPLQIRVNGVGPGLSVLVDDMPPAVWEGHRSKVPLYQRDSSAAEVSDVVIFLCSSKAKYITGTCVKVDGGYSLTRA

[13] = protein TB427.10.10980 HEAT SHOCK PROTEIN 83, vehicle control = 1
[14] = protein TB927.10.5620 FRUCTOSE-BI[…], GLYCOSOMAL, vehicle control = 1
[15] = protein TB427TMP.01.8470 DIHYDROLIPOYL DEHYDROGENASE, vehicle control = 1
[16] = protein TB427.01.3830 GLUCOSE-6-PHOSPHATE ISOMERASE, GLYCOSOMAL, vehicle control = 1
[17] = HeLa, protein DHFR (SIMILAR TO DIHYDROFOLATE REDUCTASE ISOFORM 2, PARTIAL)

Nc1nc2c(c(=O)[nH]1)N(C=O)C(CNc1ccc(C(=O)N[C@@H](CCC(=O)O)C(=O)O)cc1)CN2 (stereo partly drawn) [LEU, leucovorin]
fold changes relative to vehicle control ([1]; HeLa, protein RPS7): 0.94
fold changes relative to vehicle control ([2]; HeLa, captured protein CPSF1): 0.95
fold change vs vehicle control [3, 13]: 1.64
fold change vs vehicle control [4, 14]: 1.22
fold change vs vehicle control [5, 15]: 0.93
fold change vs vehicle control [6, 16]: 1.22
fold change ([7]; protein TB927.8.6460 HYPOTHETICAL PROTEIN): 0.84
fold changes relative to vehicle control [8, 17]: 2.72

Nc1nc2[nH]cc(CCc3ccc(C(=O)N[C@@H](CCC(=O)O)C(=O)O)cc3)c2c(=O)[nH]1 [PTX, pemetrexed]
fold changes relative to vehicle control [1]: 0.92
fold changes relative to vehicle control [2]: 0.88
fold change vs vehicle control [3]: 0.76
fold change vs vehicle control [4]: 1.11
fold change vs vehicle control [5]: 0.97
fold change vs vehicle control [6]: 0.85
fold change ([7]; protein TB927.8.6460 HY[…]): 0.66
binding to DHFR [8]: did not appear to bind DHFR
fold changes relative to vehicle control [8]: 1.09

CCCCCCOc1ccc(Cc2cnc(N)nc2N)cc1 [compound 1]
fold change - vehicle control [9]: 0.91
inhibition at 100 µM [10]: < 50%
fold change - vehicle control [11]: 0.76
inhibition at 100 µM [12]: < 50%
binding to DHFR ([8]; bead mixture, HeLa cell extract): found to bind DHFR
fold changes relative to vehicle control ([8]; captured protein DHFR, HeLa): 0.46

CCCCCCOc1cccc(Cc2cnc(N)nc2N)c1 [compound 2]
fold change - vehicle control [9]: 0.99
inhibition at 100 µM [10]: < 50%
fold change - vehicle control [11]: 0.86
inhibition at 100 µM [12]: < 50%
fold changes relative to vehicle control ([8]; captured protein DHFR, HeLa): 2.77

Nc1nc2cccc(-c3ccccc3)c2n1Cc1ccc(Cl)c(Cl)c1 [compound 3]
percentage of competition from bead binding ([9]; multitargeted bead mixture, free ligand 100 μM, T. brucei lysate, TB11.03.0290): 10%
fold change - vehicle control [9]: 1.06
inhibition at 100 µM [10]: < 50%
fold change - vehicle control [11]: 0.91
inhibition at 100 µM [12]: < 50%
percentage of competition from bead binding ([7]; multitargeted bead mixture, free ligand 100 μM, T. brucei lysate, TB927.8.6460): 15%
fold changes relative to vehicle control ([8]; captured protein DHFR, HeLa): 1.13

NCCOCCOCC(=O)Nc1nc2ncc(CNc3ccc(C(=O)NC(CCC(=O)O)C(=O)O)cc3)nc2c(=O)[nH]1 (stereo not drawn) [compound 6]
fold changes relative to vehicle control ([1]; HeLa, protein RPS7): 1.06
fold changes relative to vehicle control ([2]; HeLa, captured protein CPSF1): 0.97
fold change vs vehicle control [3, 13]: 1.41
fold change vs vehicle control [4, 14]: 1.2
fold change vs vehicle control [5, 15]: 0.97
fold change vs vehicle control [6, 16]: 0.98
fold change ([7]; protein TB927.8.6460 HY[…]): 1.03
fold changes relative to vehicle control [8, 17]: 1.74

NCCCNc1ccc(C(=O)NC(CCC(=O)O)C(=O)O)cc1 (stereo not drawn) [compound 7]
fold changes relative to vehicle control ([1]; HeLa, protein RPS7): 0.88
fold changes relative to vehicle control ([2]; HeLa, captured protein CPSF1): 0.93
fold change vs vehicle control [3, 13]: 1
fold change vs vehicle control [4, 14]: 1.08
fold change vs vehicle control [5, 15]: 1.05
fold change vs vehicle control [6, 16]: 0.88
fold change ([7]; protein TB927.8.6460 HY[…]): 1.04
fold changes relative to vehicle control [8, 17]: 0.98
